The values below come from patent US9725445B2, “Cycloalkyl nitrile pyrazolo pyridones as Janus kinase inhibitors” (Merck Sharp & Dohme Corp., priority 2013, dated 2017).

One assay concerns the target JAK2 (Homo sapiens (Human), UniProt O60674). As to the kind of experiment: Jak biochemical HTRF assay, JAK2. To be noted: HTRF biochemical assay, recombinant GST-tagged catalytic domain; read-out: JAK2 IC50. In general terms: In TR-FRET formats the signal depends on donor and acceptor labels being close together.
Another assay addresses JAK1 (Homo sapiens (Human), UniProt P23458). Put plainly: Jak biochemical HTRF assay, JAK1. Conditions: HTRF biochemical assay, recombinant GST-tagged catalytic domain; read-out: JAK1 IC50.

pIC50: −log10 of the molar value.

Sequence of JAK1 (P23458 875-1153): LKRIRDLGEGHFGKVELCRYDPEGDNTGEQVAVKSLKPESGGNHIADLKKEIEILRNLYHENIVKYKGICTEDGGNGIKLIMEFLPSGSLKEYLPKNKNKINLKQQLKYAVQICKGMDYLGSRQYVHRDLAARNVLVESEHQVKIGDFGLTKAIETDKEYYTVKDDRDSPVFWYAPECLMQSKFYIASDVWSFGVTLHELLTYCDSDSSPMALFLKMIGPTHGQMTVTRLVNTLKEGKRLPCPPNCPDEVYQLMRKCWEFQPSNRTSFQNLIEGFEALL
Sequence of JAK2 (O60674 849-1124): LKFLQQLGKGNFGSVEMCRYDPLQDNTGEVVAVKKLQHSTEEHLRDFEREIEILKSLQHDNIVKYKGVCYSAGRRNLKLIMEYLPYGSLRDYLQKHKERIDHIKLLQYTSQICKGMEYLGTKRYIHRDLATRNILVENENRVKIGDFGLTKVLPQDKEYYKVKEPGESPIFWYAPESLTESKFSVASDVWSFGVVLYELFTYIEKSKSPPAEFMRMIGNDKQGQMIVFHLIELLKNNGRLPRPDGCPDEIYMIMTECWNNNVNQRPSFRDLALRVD

Turning to `CN(C)[C@H]1CC[C@H](n2nc(Nc3ccc(Cl)c(F)c3)c3c(=O)[nH]ccc32)[C@@H](C#N)C1` [Example 5-2, (1S,2S,5S)-2-(3-((4-Chloro-3-fluorophenyl)amino)-4-oxo-4,5-dihydro-1H-pyrazolo[4,3-c]pyridin-1-yl)-5-(dimethylamino)cyclohexanecarbonitrile], the values for the negative logarithm of the IC50 (pIC50) on JAK2 and at JAK1 were 7.85 and 9.22, respectively.

Consider `N#C[C@H]1C[C@H](N2CCC2)CC[C@@H]1n1nc(Nc2ccc(Cl)c(F)c2)c2c(=O)[nH]ccc21` [Example 5-3, (1S,2S,5R)-5-(azetidin-1-yl)-2-(3-((4-chloro-3-fluorophenyl)amino)-4-oxo-4,5-dihydro-1H-pyrazolo[4,3-c]pyridin-1-yl)cyclohexanecarbonitrile], for which the values for the pIC50 at JAK2 and at JAK1 were 7.40 and 8.77, respectively.

As for `N#C[C@H]1C[C@@H](N2CCC2)CC[C@@H]1n1nc(Nc2ccc(Cl)c(F)c2)c2c(=O)[nH]ccc21` [Example 5-4, (1S,2S,5S)-5-(azetidin-1-yl)-2-(3-((4-chloro-3-fluorophenyl)amino)-4-oxo-4,5-dihydro-1H-pyrazolo[4,3-c]pyridin-1-yl)cyclohexanecarbonitrile], the negative logarithm of the IC50 (pIC50) (commonly −log10 of the IC50, conventionally taken in molar units) is 7.51 at JAK2 and 8.77 at JAK1.

As to `N#C[C@H]1C[C@H](N2CCC2)CC[C@@H]1n1nc(Nc2ccc(C(F)(F)F)cc2)c2c(=O)[nH]ccc21` [Example 5-7, (1S,2S,5R)-5-(azetidin-1-yl)-2-(4-oxo-3-((4-(trifluoromethyl)phenyl)amino)-4,5-dihydro-1H-pyrazolo[4,3-c]pyridin-1-yl)cyclohexanecarbonitrile], the pIC50 at JAK2 was 7.22; at JAK1 it was 8.85.

Consider `N#C[C@H]1C[C@@H](N2CCC2)CC[C@@H]1n1nc(Nc2ccc(C(F)(F)F)cc2)c2c(=O)[nH]ccc21` [Example 5-8, (1S,2S,5S)-5-(azetidin-1-yl)-2-(4-oxo-3-((4-(trifluoromethyl)phenyl)amino)-4,5-dihydro-1H-pyrazolo[4,3-c]pyridin-1-yl)cyclohexanecarbonitrile], for which the negative logarithm of the IC50 (pIC50) on JAK2 is 7.66; at JAK1, 9.06.

`N#C[C@@H]1C[C@@H](N2CCC2)CC[C@H]1n1nc(Nc2ccc(C(F)(F)F)cc2)c2c(=O)[nH]ccc21` [Example 5-9, (1R,2R,5S)-5-(azetidin-1-yl)-2-(4-oxo-3-((4-(trifluoromethyl)phenyl)amino)-4,5-dihydro-1H-pyrazolo[4,3-c]pyridin-1-yl)cyclohexanecarbonitrile]: the pIC50 at JAK2 is 6.18; on JAK1, 7.60.

For `N#C[C@@H]1C[C@H](N2CCC2)CC[C@H]1n1nc(Nc2ccc(C(F)(F)F)cc2)c2c(=O)[nH]ccc21` [Example 5-10, (1R,2R,5R)-5-(azetidin-1-yl)-2-(4-oxo-3-((4-(trifluoromethyl)phenyl)amino)-4,5-dihydro-1H-pyrazolo[4,3-c]pyridin-1-yl)cyclohexanecarbonitrile], the pIC50 is 6.03 on JAK2 and 7.43 at JAK1.

For `CN(C)[C@@H]1CC[C@H](n2nc(Nc3ccc(Cl)cc3)c3c(=O)[nH]ccc32)[C@@H](C#N)C1` [Example 5-15, (1S,2S,5R)-2-(3-((4-chlorophenyl)amino)-4-oxo-4,5-dihydro-1H-pyrazolo[4,3-c]pyridin-1-yl)-5-(dimethylamino)cyclohexanecarbonitrile], the results for the pIC50 on JAK2 and at JAK1 were 7.96 and 9.55, respectively.

Consider `CN(C)[C@H]1CC[C@H](n2nc(Nc3ccc(Cl)cc3)c3c(=O)[nH]ccc32)[C@@H](C#N)C1` [Example 5-16, (1S,2S,5S)-2-(3-((4-chlorophenyl)amino)-4-oxo-4,5-dihydro-1H-pyrazolo[4,3-c]pyridin-1-yl)-5-(dimethylamino)cyclohexanecarbonitrile], for which the pIC50 at JAK2 was 7.96; at JAK1, 9.47.

Regarding `CC1(O)CN([C@@H]2CC[C@H](n3nc(Nc4ccc(Cl)cc4)c4c(=O)[nH]ccc43)[C@@H](C#N)C2)C1` [Example 5-21, (1S,2S,5R)-2-(3-((4-chlorophenyl)amino)-4-oxo-4,5-dihydro-1H-pyrazolo[4,3-c]pyridin-1-yl)-5-(3-hydroxy-3-methylazetidin-1-yl)cyclohexanecarbonitrile], the pIC50 is 8.19 at JAK2 and 9.46 on JAK1.

As to `CC1(O)CN([C@H]2CC[C@H](n3nc(Nc4ccc(Cl)cc4)c4c(=O)[nH]ccc43)[C@@H](C#N)C2)C1` [Example 5-22, (1S,2S,5S)-2-(3-((4-chlorophenyl)amino)-4-oxo-4,5-dihydro-1H-pyrazolo[4,3-c]pyridin-1-yl)-5-(3-hydroxy-3-methylazetidin-1-yl)cyclohexanecarbonitrile], the negative logarithm of the IC50 (pIC50) is 8.40 on JAK2 and 9.62 on JAK1.

With `N#C[C@H]1C[C@H](N2CCC2)CC[C@@H]1n1nc(Nc2ccc(OC(F)(F)F)cc2)c2c(=O)[nH]ccc21` [Example 5-23, (1S,2S,5R)-5-(azetidin-1-yl)-2-(4-oxo-3-((4-(trifluoromethoxy)phenyl)amino)-4,5-dihydro-1H-pyrazolo[4,3-c]pyridin-1-yl)cyclohexanecarbonitrile], the pIC50 at JAK2 was 7.51; on JAK1, 9.06.

Regarding `N#C[C@H]1C[C@@H](N2CCC2)CC[C@@H]1n1nc(Nc2ccc(OC(F)(F)F)cc2)c2c(=O)[nH]ccc21` [Example 5-24, (1S,2S,5S)-5-(azetidin-1-yl)-2-(4-oxo-3-((4-(trifluoromethoxy)phenyl)amino)-4,5-dihydro-1H-pyrazolo[4,3-c]pyridin-1-yl)cyclohexanecarbonitrile], the pIC50 is 7.51 at JAK2 and 9.06 on JAK1.

Take `CN(C)[C@@H]1CC[C@H](n2nc(Nc3ccc(OC(F)(F)F)cc3)c3c(=O)[nH]ccc32)[C@@H](C#N)C1` [Example 5-25, (1S,2S,5R)-5-(dimethylamino)-2-(4-oxo-3-((4-(trifluoromethoxy)phenyl)amino)-4,5-dihydro-1H-pyrazolo[4,3-c]pyridin-1-yl)cyclohexanecarbonitrile]: the figures for the pIC50 at JAK2 and on JAK1 were 7.66 and 9.02, respectively.

Regarding `CN(C)[C@H]1CC[C@H](n2nc(Nc3ccc(OC(F)(F)F)cc3)c3c(=O)[nH]ccc32)[C@@H](C#N)C1` [Example 5-26, (1S,2S,5S)-5-(dimethylamino)-2-(4-oxo-3-((4-(trifluoromethoxy)phenyl)amino)-4,5-dihydro-1H-pyrazolo[4,3-c]pyridin-1-yl)cyclohexanecarbonitrile], the values for the negative logarithm of the IC50 (pIC50) on JAK2 and on JAK1 were 8.15 and 9.48, respectively.

`C[C@H](N[C@@H]1CC[C@H](n2nc(Nc3ccc(OC(F)(F)F)cc3)c3c(=O)[nH]ccc32)[C@@H](C#N)C1)C1CC1` [Example 5-27, (1S,2S,5R)-5-(((S)-1-cyclopropylethyl)amino)-2-(4-oxo-3-((4-(trifluoromethoxy)phenyl)amino)-4,5-dihydro-1H-pyrazolo[4,3-c]pyridin-1-yl)cyclohexanecarbonitrile]: the pIC50 on JAK2 was 6.63; at JAK1 it was 8.43.

As for `C[C@H](N[C@H]1CC[C@H](n2nc(Nc3ccc(OC(F)(F)F)cc3)c3c(=O)[nH]ccc32)[C@@H](C#N)C1)C1CC1` [Example 5-28, (1S,2S,5S)-5-(((S)-1-cyclopropylethyl)amino)-2-(4-oxo-3-((4-(trifluoromethoxy)phenyl)amino)-4,5-dihydro-1H-pyrazolo[4,3-c]pyridin-1-yl)cyclohexanecarbonitrile], the negative logarithm of the IC50 (pIC50) on JAK2 is 7.43; on JAK1 it was 9.30.
